Reference: patent US20210238225A1, “PEPTIDOMIMETIC INHIBITORS OF THE PEPTIDYL-PROLYL CIS/TRANS ISOMERASE (PIN1)” (DANA-FARBER CANCER INSTITUTE, INC., priority 2018, published 2021)
Like-named read-outs stand apart in the source and are kept apart here. Non-standard residues stand in square brackets, D forms with d. Residues, ends and D or L forms follow the SMILES beside them. *: point of attachment. Ala(4-thiazolyl) = N[C@@H](Cc1cscn1)C(=O)O; Phe(4-F) = N[C@@H](Cc1ccc(F)cc1)C(=O)O; 2Nal = N[C@@H](Cc1ccc2ccccc2c1)C(=O)O; NH(4-Me-benzyl) = Cc1ccc(CN*)cc1; NMeF = CN[C@@H](Cc1ccccc1)C(=O)O; Cit = NC(=O)NCCC[C@H](N)C(=O)O; Pip = O=C(O)[C@@H]1CCCCN1; Piperidide = C1CCN(*)CC1; NHcBu = C1CC(N*)C1; NHtBu = CC(C)(C)N*; ClAc = O=C(CCl)*; NHcPr = C1CC1N*

Experiments:
Pin1 (GST-Pin1) = Pin1 (GST-Pin1) (Homo sapiens, UniProt Q13526); test: Fluorescence polarization (FP) assay, binding to Pin1; settings: competition with fluorescein-labeled peptide probe, 12 hours pre-incubation at 4° C., Kenakin Ki equation
Pin1 = Pin1 (Homo sapiens, UniProt Q13526); test: Cellular target engagement, live cell biotin competition assay in TNBC MDA-MB-231 cells; assay type: cell-based; design: endogenous in cells; host or cells: MDA-MB-231; settings: TNBC MDA-MB-231 cells; for Cellular Target Engagement?: 5 hours treatment, concentration under E7; for Cellular Target Engagement? concentration stated for complete engagement: read with the E6 line
Procedure: TNBC MDA-MB-231 cells were plated in 10 cm plates with 2.5 million cells per plate in 6 mL of media. The day after plating, cells were treated with the indicated concentrations of compound 18 for 5 hours. The cells were washed 2× with 0.9% NaCl (1 mL per 10 cm plate), and collected by scraping with a cell scraper. Cells were lysed in lysis buffer (50 mM Hepes pH 7.5, 150 mM NaCl, 1 mM EDTA, 10% v/v glycerol, 0.5% v/v […], protease inhibitors (Roche)) using 210 μL of cell lysis buffer per 10 cm plate of cells. After clarifying by centrifugation (14,000 rpm for 15 min at 4° C.), 5 μL of each lysate sample was combined with 5 μL of 2× LDS+10% β-mercaptoethanol, boiled for 5 minutes, and set aside for the input loading control (later to be loaded directly in the gel). Then, 200 μL of each lysate was then incubated with 1 μM of compound 2-32 (biotin probe compound) for 1 hour at 4° C. Lysates were then incubated with streptavidin agarose resin (30 μL of 1:1 beads: lysis buffer slurry) (Thermo Scientific™, cat. #20349) for 2 hours at 4° C. Beads were washed 4 times with 500 μL of washing buffer (50 mM Hepes, pH7.5, 10 mM NaCl, 1 mM EDTA, 10% glycerol), then pelleted by centrifugation and dried. The beads were then boiled at 95° C. for 5 minutes in 30 μL of 2× LDS+10% β-mercaptoethanol. Lysates were probed for specified proteins by western blotting using the Bolt system (Life Technologies™).

Sequence of Pin1 (GST-Pin1) (Q13526 whole entry): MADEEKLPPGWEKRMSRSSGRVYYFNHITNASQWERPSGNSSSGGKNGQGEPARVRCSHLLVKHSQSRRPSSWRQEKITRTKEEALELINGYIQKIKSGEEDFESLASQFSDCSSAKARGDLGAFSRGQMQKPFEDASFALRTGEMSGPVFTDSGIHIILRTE
Sequence of Pin1 (Q13526 whole entry): as above

NC(=O)[C@H](Cc1ccc(O)cc1)NC(=O)[C@H](Cc1ccc2ccccc2c1)NC(=O)[C@@H]1CCCCN1C(=O)[C@H](CCC(=O)O)NC(=O)CCl [Compound 2-6, (S)-5-((S)-2-(((S)-1-(((S)-1-Amino-3-(4-hydroxyphenyl)-1-oxopropan-2-yl)amino)-3-(naphthalen-2-yl)-1-oxopropan-2-yl)carbamoyl)piperidin-1-yl)-4-(2-chloroacetamido)-5-oxopentanoic acid] (ClAc-E[Pip][2Nal]Y-NH2)
Ki (Pin1 (GST-Pin1); read-out: Ki, μM (FP Assay)): 0.28 µM
Cellular Target Engagement? (Pin1): No

Cc1ccc(CNC(=O)[C@H](CCCNC(N)=O)NC(=O)[C@H](Cc2c[nH]c3ccccc23)NC(=O)[C@@H]2CCCCN2C(=O)[C@H](Cc2ccccc2)N(C)C(=O)CCl)cc1 [Compound 11, (S)—N—((S)-3-(1H-indol-3-yl)-1-(((S)-1-((4-methylbenzyl)amino)-1-oxo-5-ureidopentan-2-yl)amino)-1-oxopropan-2-yl)-1-(N-(2-chloroacetyl)-N-methyl-L-phenylalanyl)piperidine-2-carboxamide] (ClAc-[NMeF][Pip]W[Cit]-{NH(4-Me-benzyl)})
Ki (Pin1 (GST-Pin1); read-out: Ki, μM (FP Assay)): 0.01 µM
Cellular Target Engagement? (Pin1): Yes-
Cellular Target Engagement? concentration stated for complete engagement (Pin1): at 5 μM

COC(=O)CC[C@H](NC(=O)CCl)C(=O)N1CCCC[C@H]1C(=O)N[C@@H](Cc1c[nH]c2ccccc12)C(=O)N[C@@H](Cc1ccc(F)cc1)C(=O)NCc1ccc(C)cc1 [Compound 11-3, Methyl (S)-4-(2-chloroacetamido)-5-((S)-2-(((S)-1-(((S)-3-(4-fluorophenyl)-1-((4-methylbenzyl)amino)-1-oxopropan-2-yl)amino)-3-(1H-indol-3-yl)-1-oxopropan-2-yl)carbamoyl)piperidin-1-yl)-5-oxopentanoate] (ClAc-E(OMe)[Pip]W[Phe(4-F)]-{NH(4-Me-benzyl)})
Ki (Pin1 (GST-Pin1); Ki, μM (FP Assay)): 0.19 µM
Cellular Target Engagement? (Pin1): Yes-Complete
Cellular Target Engagement? concentration stated for complete engagement (Pin1): at 15 μM

COC(=O)CC[C@H](NC(=O)CCl)C(=O)N1CCCC[C@H]1C(=O)N[C@@H](Cc1c[nH]c2ccccc12)C(=O)N[C@@H](CCCNC(N)=O)C(=O)NCc1ccc(C)cc1 [Compound 11-4, Methyl (S)-5-((S)-2-(((S)-3-(1H-indol-3-yl)-1-(((S)-1-((4-methylbenzyl)amino)-1-oxo-5-ureidopentan-2-yl)amino)-1-oxopropan-2-yl)carbamoyl)piperidin-1-yl)-4-(2-chloroacetamido)-5-oxopentanoate] (ClAc-E(OMe)[Pip]W[Cit]-{NH(4-Me-benzyl)})
Ki (Pin1 (GST-Pin1); Ki, μM (FP Assay)): 0.03 µM
Cellular Target Engagement? (Pin1): No

Cc1ccc(CNC(=O)[C@H](Cc2ccc(F)cc2)NC(=O)[C@H](Cc2c[nH]c3ccccc23)NC(=O)[C@@H]2CCCCN2C(=O)[C@H](CCC(=O)O)NC(=O)CCl)cc1 [Compound 11-5, (S)-4-(2-chloroacetamido)-5-((S)-2-(((S)-1-(((S)-3-(4-fluorophenyl)-1-((4-methylbenzyl)amino)-1-oxopropan-2-yl)amino)-3-(1H-indol-3-yl)-1-oxopropan-2-yl)carbamoyl)piperidin-1-yl)-5-oxopentanoic acid] (ClAc-E[Pip]W[Phe(4-F)]-{NH(4-Me-benzyl)})
Ki (Pin1 (GST-Pin1); read-out: Ki, μM (FP Assay)): 0.13 µM
Cellular Target Engagement? (Pin1): No

Cc1ccc(CNC(=O)[C@H](CCCNC(N)=O)NC(=O)[C@H](Cc2c[nH]c3ccccc23)NC(=O)[C@@H]2CCCCN2C(=O)[C@H](CCC(=O)O)NC(=O)CCl)cc1 [Compound 11-6, (S)-5-((S)-2-(((S)-3-(1H-indol-3-yl)-1-(((S)-1-((4-methylbenzyl)amino)-1-oxo-5-ureidopentan-2-yl)amino)-1-oxopropan-2-yl)carbamoyl)piperidin-1-yl)-4-(2-chloroacetamido)-5-oxopentanoic acid] (ClAc-E[Pip]W[Cit]-{NH(4-Me-benzyl)})
Ki (Pin1 (GST-Pin1); read-out: Ki, μM (FP Assay)): 0.01 µM
Cellular Target Engagement? (Pin1): No

COC(=O)CC[C@H](NC(=O)CCl)C(=O)N1CCCC[C@H]1C(=O)N[C@@H](Cc1c[nH]c2ccccc12)C(=O)N[C@@H](Cc1ccc(F)cc1)C(=O)NC(C)(C)C [Compound 11-18, Methyl (S)-5-((S)-2-(((S)-1-(((S)-1-(tert-butylamino)-3-(4-fluorophenyl)-1-oxopropan-2-yl)amino)-3-(1H-indol-3-yl)-1-oxopropan-2-yl)carbamoyl)piperidin-1-yl)-4-(2-chloroacetamido)-5-oxopentanoate] (ClAc-E(OMe)[Pip]W[Phe(4-F)]-NHtBu)
Ki (Pin1 (GST-Pin1); Ki, μM (FP Assay)): 0.134 µM
Cellular Target Engagement? (Pin1): No

COC(=O)CC[C@H](NC(=O)CCl)C(=O)N1CCCC[C@H]1C(=O)N[C@@H](Cc1c[nH]c2ccccc12)C(=O)N[C@@H](Cc1ccc(F)cc1)C(=O)NC1CCC1 [Compound 11-19, Methyl (S)-4-(2-chloroacetamido)-5-((S)-2-(((S)-1-(((S)-1-(cyclobutylamino)-3-(4-fluorophenyl)-1-oxopropan-2-yl)amino)-3-(1H-indol-3-yl)-1-oxopropan-2-yl)carbamoyl)piperidin-1-yl)-5-oxopentanoate] (ClAc-E(OMe)[Pip]W[Phe(4-F)]-NHcBu)
Ki (Pin1 (GST-Pin1); Ki, μM (FP Assay)): 0.146 µM
Cellular Target Engagement? (Pin1): No

COC(=O)CC[C@H](NC(=O)CCl)C(=O)N1CCCC[C@H]1C(=O)N[C@@H](Cc1c[nH]c2ccccc12)C(=O)N[C@@H](Cc1cscn1)C(=O)NCc1ccc(C)cc1 [Compound 11-28, Methyl (S)-5-((S)-2-(((S)-3-(1H-indol-3-yl)-1-(((S)-1-((4-methylbenzyl)amino)-1-oxo-3-(thiazol-4-yl)propan-2-yl)amino)-1-oxopropan-2-yl)carbamoyl)piperidin-1-yl)-4-(2-chloroacetamido)-5-oxopentanoate] (ClAc-E(OMe)[Pip]W[Ala(4-thiazolyl)]-{NH(4-Me-benzyl)})
Ki (Pin1 (GST-Pin1); Ki, μM (FP Assay)): 0.099 µM
Cellular Target Engagement? (Pin1): No

NC(=O)NCCC[C@H](NC(=O)[C@H](Cc1c[nH]c2ccccc12)NC(=O)[C@@H]1CCCCN1C(=O)[C@H](Cc1ccccc1)NC(=O)CCl)C(=O)NC1CC1 [Compound 11-38, (S)-1-((2-chloroacetyl)-L-phenylalanyl)-N—((S)-1-(((S)-1-(cyclopropylamino)-1-oxo-5-ureidopentan-2-yl)amino)-3-(1H-indol-3-yl)-1-oxopropan-2-yl)piperidine-2-carboxamide] (ClAc-F[Pip]W[Cit]-NHcPr)
Ki (Pin1 (GST-Pin1); read-out: Ki, μM (FP Assay)): 0.018 µM
Cellular Target Engagement? (Pin1): No

NC(=O)NCCC[C@H](NC(=O)[C@H](Cc1c[nH]c2ccccc12)NC(=O)[C@@H]1CCCCN1C(=O)[C@H](Cc1ccccc1)NC(=O)CCl)C(=O)N1CCCCC1 [Compound 11-39, (S)—N—((S)-3-(1H-indol-3-yl)-1-oxo-1-(((S)-1-oxo-1-(piperidin-1-yl)-5-ureidopentan-2-yl)amino)propan-2-yl)-1-((2-chloroacetyl)-L-phenylalanyl)piperidine-2-carboxamide] (ClAc-F[Pip]W[Cit]-Piperidide)
Ki (Pin1 (GST-Pin1); read-out: Ki, μM (FP Assay)): 0.017 µM
Cellular Target Engagement? (Pin1): No

CCOC(=O)[C@H](CCCNC(N)=O)NC(=O)[C@H](Cc1c[nH]c2ccccc12)NC(=O)[C@@H]1CCCCN1C(=O)[C@H](Cc1ccccc1)N(C)C(C)=O [Compound 18-1, Ethyl (S)-2-((S)-2-((S)-1-(N-acetyl-N-methyl-L-phenylalanyl)piperidine-2-carboxamido)-3-(1H-indol-3-yl)propanamido)-5-ureidopentanoate] (Ac-[NMeF][Pip]W[Cit]-OEt)
Ki (Pin1 (GST-Pin1); read-out: Ki, μM (FP Assay)): 1.9 µM
Cellular Target Engagement? (Pin1): No
